The test system of the data set is MCT4. Nature of the data set: Percent inhibition of MCT4 by MCT4 ASOs (knock-down after transfection, qPCR/Western blot). It counts as cell-based, human. As for the experimental part:
First-generation phosphorothioate-modified ASOs against human MCT4 were rationally designed by selecting sequences containing favourable motifs while excluding unfavourable ones (Matveeva et al., 2000). Specificity of MCT4-targeting sequences, compared to human and mouse genes (at least 3 of 20 bases mismatched), was evaluated using BLAST. Ten sequences SEQ ID No: 1, 4, 5, 9, 11, 30, 36, 37, 40 and 41 (see TABLE A) distributed throughout the length of the transcript with perfect complementarity to all human MCT4 transcript variants (NM_001042422.2, NM_001042423.2, NM_001206950.1, NM_001206951.1, NM_001206952.1, and NM_004207.3) were selected and synthesized by Eurofins MWG Operon. The knock-down efficiencies of these ten ASOs were tested by determining target mRNA and protein expression 48 hours after transfection of cells using qPCR and Western blotting. Two candidate ASOs (#1 and #14—SEQ ID NOs: 1 and 5, respectively) were selected for further studies. Sequences: ASO #1 (SEQ ID NO: 1), 5′-[…]-3′; ASO #14 (SEQ ID NO: 5), 5′-[…]-3′; a published non-targeting control ASO, 5′-[…]-3′ (Mullick et al., 2011; Samuel et al., 2006).
Cells were transfected in 6-well plates with ASOs at 100 nM for 48 hours (unless otherwise indicated) using Oligofectamine™ (Invitrogen™, Carlsbad, Calif.) or with MCT4-targeting siRNAs and controls (Dharmacon™, Chicago, Ill.) at 50 nM for 48 hours using Lipofectamine™ 2000 (Invitrogen™), following the manufacturer's instructions.
Total RNA was isolated using the RNeasy Mini Kit™ (Qiagen Inc.™, Hilden, Germany) and cDNA synthesized using the QuantiTect Reverse Transcription Kit™ (Qiagen™). Primers were designed using Primer-BLAST™. qRT-PCR reactions using KAPA SYBR Fast Universal™ (Kapa Biosystems™, Woburn, Mass.) were performed in triplicate in a ViiA 7 Real-Time PCR™ system (Applied Biosystems™, Foster City, Calif.). Target genes were normalized to a geometric average of 3 internal reference genes (Vandesompele et al., 2002).
Cells were harvested and lysed in RIPA buffer (50 mM Tris-Cl pH 7.4, 150 mM NaCl, 1% Igepal, 0.5% Na-deoxycholate, 0.1% SDS) supplemented with a complete protease inhibitor cocktail (Roche, Nutley, N.J.). The protein concentration of the lysate was determined by Pierce BCA Protein Assay™ (Thermo Scientific™, Waltham, Mass.). The lysate was run on 8% SDS polyacrylamide gel (20 ug of protein per lane) and proteins were transferred onto PVDF membrane (Millipore™, Billerica, Mass.). The blot was blocked with the Odyssey™ blocking buffer (Li-cor Biosciences™) and probed with anti-MCT4 antibody. Vinculin was used as a loading control. Following overnight incubation at 4° C., the primary antibody was probed with the corresponding secondary antibody and detected using the Odyssey Infrared Imaging System™ (Li-cor Biosciences™) and Image Studio Version 3.1™ (Li-cor Biosciences™). Densitometry analysis was done using ImageJ (U.S. National Institutes of Health, Bethesda, Md.).

Setting [1] is: Table A, ASOs transfected at 100 nM for 48 hours unless otherwise indicated.
[2] abbreviates: Table B, SEQ ID NO 1 and 16 mer truncations.

Strand notation (5' to 3'): a small letter for the sugar, then the base; units joined by * are phosphorothioate-linked, units joined directly phosphodiester-linked; [ ] holds rarer units or linkages, { } end groups; capitals alone tell only the bases. d = 2'-deoxy (DNA)

As to “13 (AGCACGGCCCAGCCCCAGCC; antisense; DNA, all phosphorothioate, methylation of C not given here; listed as Homo sapiens) [compound 13]”, the “% MCT4 Inhibition” value under setting [1] is given as 66.85%.

Turning to “26 (dA*dA*dT*dG*dC*dT*dC*dC*dA*dC*dC*dT*dC*dC*dC*dG*dC*dA*dA*dG; antisense; listed as Homo sapiens) [compound 26]”, the “% MCT4 Inhibition” value under setting [1] was determined as 9.55%. Consider “29 (dT*dC*dT*dG*dT*dA*dC*dC*dT*dC*dC*dT*dC*dC*dC*dT*dG*dT*dG*dC; antisense; listed as Homo sapiens) [compound 29]”, for which, under setting [1], the “% MCT4 Inhibition” value is listed as 16.31%.

Turning to “5 (AGATGCAGAAGACCACGAGG; antisense; DNA, all phosphorothioate, methylation of C not given here; listed as Homo sapiens) [compound 5]”, the “% MCT4 Inhibition” value under setting [1] is 78.16%. On the same count and under the same terms, as for “15 (dC*dA*dG*dG*dA*dT*dG*dG*dA*dG*dG*dA*dG*dA*dT*dC*dC*dA*dG*dG; antisense; listed as Homo sapiens) [compound 15]”, the figure is 75.58%. Turning to “50 (dT*dC*dC*dC*dA*dT*dG*dG*dC*dC*dA*dG*dG*dA*dG*dG; antisense; listed as Homo sapiens) [compound 50]”, the “% MCT4 Inhibition” value by setting is: under setting [1], 30.52%; under setting [2], 30.52%. Turning to “43 (TTAAAGTCACGTTGTCTCG; listed as DNA, chemistry not fully specified; listed as Homo sapiens) [compound 43]”, under setting [1], the “% MCT4 Inhibition” value stood at 0.27%. Take “22 (dC*dA*dG*dG*dG*dC*dA*dC*dA*dC*dA*dG*dG*dA*dA*dG*dA*dC*dA*dG; antisense; listed as Homo sapiens) [compound 22]”: the “% MCT4 Inhibition” value under setting [1] is 79.96%.

As to “33 (dC*dC*dC*dA*dC*dC*dA*dT*dG*dC*dC*dG*dT*dA*dG*dG*dA*dG*dA*dT; antisense; listed as Homo sapiens) [compound 33]”, the “% MCT4 Inhibition” value under setting [1] was found to be 49.00%.

“21 (dG*dC*dA*dC*dA*dC*dA*dG*dG*dA*dA*dG*dA*dC*dA*dG*dG*dG*dC*dT; antisense; listed as Homo sapiens) [compound 21]”: the “% MCT4 Inhibition” value under setting [1] is recorded as 60.36%. Turning to “4 (TTGGCGTAGCTCACCACGAA; antisense; DNA, all phosphorothioate, methylation of C not given here; listed as Homo sapiens) [compound 4]”, the “% MCT4 Inhibition” value under setting [1] is 77.13%. For “35 (dC*dT*dT*dC*dA*dC*dC*dG*dC*dA*dG*dA*dT*dC*dC*dA*dC*dT*dC*dT; antisense; listed as Homo sapiens) [compound 35]”, the “% MCT4 Inhibition” value under setting [1] is given as -10.07%. On to “1 (TCCCATGGCCAGGAGGGTTG; antisense; DNA, all phosphorothioate, methylation of C not given here; listed as Homo sapiens) [compound 1]”, for which the “% MCT4 Inhibition” value under setting [1] stood at 65.52% and the “% MCT4 Inhibition” value under setting [2] came to 65.52%. “41 (dG*dC*dT*dT*dC*dT*dG*dT*dA*dC*dC*dT*dC*dC*dT*dC*dC*dC*dT*dG; antisense; listed as Homo sapiens) [compound 41]”: under setting [1], the “% MCT4 Inhibition” value worked out at 17.02%. As to “39 (dC*dC*dT*dG*dA*dG*dC*dC*dA*dG*dT*dC*dC*dA*dG*dT*dT*dT*dG*dT; antisense; listed as Homo sapiens) [compound 39]”, under setting [1], the “% MCT4 Inhibition” value came to 39.46%.

Take “46 (dA*dT*dG*dG*dC*dC*dA*dG*dG*dA*dG*dG*dG*dT*dT*dG; antisense; listed as Homo sapiens) [compound 46]”: the “% MCT4 Inhibition” value is, setting by setting: under setting [1], 76.03%; under setting [2], 76.03%. In the case of “14 (GAGCTCCTTGAAGAAGACACT; antisense; DNA, all phosphorothioate, methylation of C not given here; listed as Homo sapiens) [compound 14]”, under setting [1], the “% MCT4 Inhibition” value was determined as 72.00%.

Consider “6 (CCACTCTGGAATGACACGGT; antisense; DNA, all phosphorothioate, methylation of C not given here; listed as Homo sapiens) [compound 6]”, for which the “% MCT4 Inhibition” value under setting [1] stood at 78.67%.

“23 (dC*dA*dG*dC*dA*dG*dT*dT*dG*dA*dG*dC*dA*dG*dC*dA*dG*dG*dC*dC; antisense; listed as Homo sapiens) [compound 23]”: under setting [1], the “% MCT4 Inhibition” value is 65.41%. As to “37 (dC*dC*dA*dG*dC*dC*dA*dC*dT*dC*dA*dG*dA*dC*dA*dC*dT*dT*dG*dT; antisense; listed as Homo sapiens) [compound 37]”, under setting [1], the “% MCT4 Inhibition” value came out at 33.14%. Consider “11 (CTCAGGCTGTGGCTCTTTGG; antisense; DNA, all phosphorothioate, methylation of C not given here; listed as Homo sapiens) [compound 11]”, for which the “% MCT4 Inhibition” value under setting [1] worked out at 63.01%. As for “32 (dA*dA*dG*dA*dG*dA*dC*dC*dC*dC*dC*dC*dA*dC*dA*dA*dG*dC*dA*dT; antisense; listed as Homo sapiens) [compound 32]”, the “% MCT4 Inhibition” value under setting [1] stood at 18.67%. On the same count and under the same terms, as for “44 (TTGCGGCTTGGCTTCACCG; listed as DNA, chemistry not fully specified; listed as Homo sapiens) [compound 44]”, the figure is 31.16%; as for “2 (GTCCCGGAAGACGCTCAGGT; antisense; DNA, all phosphorothioate, methylation of C not given here; listed as Homo sapiens) [compound 2]”, 86.33%.

As to “42 (dT*dG*dT*dC*dG*dC*dT*dG*dT*dA*dG*dC*dC*dG*dA*dT*dC*dC*dC; antisense; listed as Homo sapiens) [compound 42]”, the “% MCT4 Inhibition” value under setting [1] was 21.20%. With “47 (dC*dA*dT*dG*dG*dC*dC*dA*dG*dG*dA*dG*dG*dG*dT*dT; antisense; listed as Homo sapiens) [compound 47]”, the “% MCT4 Inhibition” value turned out to be 81.21% under setting [1] and 81.21% under setting [2]. Turning to “16 (dA*dG*dA*dC*dC*dC*dC*dC*dC*dA*dC*dA*dA*dG*dC*dA*dT*dG*dA*dC; antisense; listed as Homo sapiens) [compound 16]”, the “% MCT4 Inhibition” value under setting [1] is 55.47%. Regarding “18 (dC*dC*dC*dG*dT*dT*dG*dG*dC*dC*dA*dT*dG*dG*dG*dG*dC*dG*dC*dC; antisense; listed as Homo sapiens) [compound 18]”, under setting [1], the “% MCT4 Inhibition” value is 71.14%.

On to “36 (dA*dA*dC*dA*dC*dT*dC*dC*dA*dC*dC*dC*dA*dC*dA*dC*dG*dC*dA*dG; antisense; listed as Homo sapiens) [compound 36]”, for which the “% MCT4 Inhibition” value under setting [1] came out at 9.33%. Take “25 (dT*dT*dC*dC*dC*dA*dA*dG*dC*dC*dC*dC*dG*dC*dC*dA*dC*dG*dA*dA; antisense; listed as Homo sapiens) [compound 25]”: the “% MCT4 Inhibition” value under setting [1] is on record as 22.88%. “7 (GTAGGAGAAGCCAGTGATGAC; antisense; DNA, all phosphorothioate, methylation of C not given here; listed as Homo sapiens) [compound 7]”: under setting [1], the “% MCT4 Inhibition” value is on record as 66.31%. Take “49 (dC*dC*dC*dA*dT*dG*dG*dC*dC*dA*dG*dG*dA*dG*dG*dG; antisense; listed as Homo sapiens) [compound 49]”: the “% MCT4 Inhibition” value under setting [1] is listed as 65.76% and the “% MCT4 Inhibition” value under setting [2] was determined as 65.76%.

For “17 (dG*dA*dA*dG*dT*dT*dG*dA*dG*dT*dG*dC*dC*dA*dA*dA*dC*dC*dC*dA*dA; antisense; listed as Homo sapiens) [compound 17]”, the “% MCT4 Inhibition” value under setting [1] amounted to 70.93%. “8 (AGCATGGCCAGCAGGATGGA; antisense; DNA, all phosphorothioate, methylation of C not given here; listed as Homo sapiens) [compound 8]”: the “% MCT4 Inhibition” value under setting [1] came out at 80.77%.

Turning to “40 (dC*dC*dC*dA*dC*dC*dC*dA*dC*dC*dC*dT*dC*dC*dC*dA*dT*dT*dA*dA; antisense; listed as Homo sapiens) [compound 40]”, the “% MCT4 Inhibition” value under setting [1] is on record as -42.05%.

The values are drawn from US11466273B2, “Monocarboxylate transporter 4 (MCT4) antisense oligonucleotide (ASO) inhibitors for use as therapeutics in the treatment of cancer” (THE UNIVERSITY OF BRITISH COLUMBIA, priority 2015, dated 2022).
